Laboratory results from US20240148821A1, “PHARMACEUTICAL USE OF CYCLIC PEPTIDE COMPOUND” (CHUGAI SEIYAKU KABUSHIKI KAISHA, priority 2021, published 2024).
Numbered stars: 1 amine (or outer) side, 2 acyl side, 3 side chain; on linkers, the order of the positions; unused ones are H or OH. Bridge positions count the residues as written; N and C are the ends. Square brackets hold non-standard residues; d marks the D form. Peptide text beside a SMILES is read from it. * marks the point of attachment. hPhe(3-Cl-4-CF3) = N[C@@H](CCc1ccc(C(F)(F)F)c(Cl)c1)C(=O)O; hPhe(3-F,4-CF3) = N[C@@H](CCc1ccc(C(F)(F)F)c(F)c1)C(=O)O; NEtPhe(4-CF3) = CCN[C@@H](Cc1ccc(C(F)(F)F)cc1)C(=O)O; X8 = CC(C)Oc1cc(CC[C@H](N[*:1])C(=O)[*:2])cc(Cl)c1Cl; Pro(cis-4-Ph) = O=C(O)[C@@H]1C[C@H](c2ccccc2)CN1; NMePhe(4-Cl) = CN[C@@H](Cc1ccc(Cl)cc1)C(=O)O; X11 = O=C([C@H](CCc1ccc2occc2c1)N[*:1])[*:2]; NEtPhe(2-Cl) = CCN[C@@H](Cc1ccccc1Cl)C(=O)O; NMePhe(4-Me) = CN[C@@H](Cc1ccc(C)cc1)C(=O)O; NMedβ3hAla = C[C@H](CC(=O)[*:2])N(C)[*:1]; NMeGly(cPent) = CN[C@H](C(=O)O)C1CCCC1; Pro(4,4-F2) = O=C(O)[C@@H]1CC(F)(F)CN1; NMeCha = CN[C@@H](CC1CCCCC1)C(=O)O; cisHyp = O=C(O)[C@@H]1C[C@H](O)CN1; NMeChg = CN[C@H](C(=O)O)C1CCCCC1; NMeF = CN[C@@H](Cc1ccccc1)C(=O)O; NMeI = CC[C@H](C)[C@H](NC)C(=O)O; d(β3hL) = CC(C)C[C@@H](N)CC(=O)O; NMeD = CN[C@@H](CC(=O)O)C(=O)O; NMeL = CN[C@@H](CC(C)C)C(=O)O; NMeV = CN[C@H](C(=O)O)C(C)C; d(β3hA) = C[C@@H](N)CC(=O)O; Pip = O=C(O)[C@@H]1CCCCN1; NMeA = CN[C@@H](C)C(=O)O; NMeAib = CNC(C)(C)C(=O)O; Nle = CCCC[C@H](N)C(=O)O; Piperidide = C1CCN(*)CC1; Ac5c = NC1(C(=O)O)CCCC1; Aze = O=C(O)[C@@H]1CCN1; Ac4c = NC1(C(=O)O)CCC1; Ethyl(2-OH) = OCC*; Sar = CNCC(=O)O

molecular target: protein-protein interaction between Kras and SOS1 (biotin-tagged human Kras loaded with GDP, His-tagged human SOS1) (Homo sapiens (Human), UniProt P01116, G12D); experiment: Protein-protein interaction inhibition between Kras and SOS1 (KrasG12D-SOS PPI) using AlphaScreen; type: biochemical; settings: AlphaScreen; biotin-tagged human Kras loaded with GDP, His-tagged human SOS1; read-out: KRAS G12D-SOS PPI IC50;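 also: kras produced in E. coli, Ni-coupled donor beads and streptavidin acceptor beads, excitation 680 nm with emission detected at 520–620 nm via singlet oxygen transfer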

| SMILES | IC50 |
| --- | --- |
| CC[C@H](C)[C@@H]1NC(=O)[C@H](CC(C)C)N(C)C(=O)C[C@@H](C)N(C)C(=O)[C@H](C2CCCCC2)N(C)C(=O)C2(CCC2)NC(=O)[C@@H]2CC(F)(F)CN2C(=O)[C@H](CCc2ccc(C(F)(F)F)c(Cl)c2)NC(=O)CN(C)C(=O)[C@H](Cc2ccc(C(F)(F)F)cc2)N(CC)C(=O)[C@@H]2CCN2C(=O)[C@H](C)NC1=O [Compound 138] (cyclo(A[Aze][NEtPhe(4-CF3)][Sar][hPhe(3-Cl-4-CF3)][Pro(4,4-F2)][Ac4c][NMeChg][NMedβ3hAla][NMeL]I)) | 44 nM |
| CC[C@H](C)[C@@H]1NC(=O)[C@H](CC(C)C)N(C)C(=O)C[C@@H](C)NC(=O)[C@H](C(C)C)N(C)C(=O)C2(CCCC2)NC(=O)[C@@H]2CCCN2C(=O)[C@H](CCc2ccc(C(F)(F)F)c(Cl)c2)NC(=O)CN(C)C(=O)[C@H](CC2CCCCC2)N(C)C(=O)[C@@H]2CCN2C(=O)[C@@H]2CCCCN2C1=O [Compound 416] (cyclo([Ac5c][NMeV][d(β3hA)][NMeL]I[Pip][Aze][NMeCha][Sar][hPhe(3-Cl-4-CF3)]P)) | 54 nM |
| CC[C@H](C)[C@@H]1NC(=O)[C@H](CC(C)C)N(C)C(=O)C[C@@H](C(=O)N2CCCCC2)N(C)C(=O)[C@H](C2CCCCC2)N(C)C(=O)C2(CCCC2)NC(=O)[C@@H]2C[C@H](c3ccccc3)CN2C(=O)[C@H](CCc2ccc(C(F)(F)F)c(Cl)c2)NC(=O)CN(C)C(=O)[C@H](CC2CCCCC2)N(C)C(=O)[C@@H]2CCN2C(=O)CN(C)C1=O [Compound 960] ([NMeL]I[Sar][Aze][NMeCha][Sar][hPhe(3-Cl-4-CF3)][Pro(cis-4-Ph)][Ac5c][NMeChg][NMeD]-Piperidide; lactam N-11) | 7.9 nM |
| CC[C@H](C)[C@@H]1NC(=O)[C@H](C)N(C)C(=O)C[C@@H](C(=O)N2CCCCC2)N(C)C(=O)[C@H](C(C)C)N(C)C(=O)C2(CCCC2)NC(=O)[C@@H]2CCCN2C(=O)[C@H](CCc2cc(Cl)c(Cl)c(OC(C)C)c2)NC(=O)CN(C)C(=O)[C@H](CC2CCCCC2)N(C)C(=O)CN(C)C(=O)CN(C)C1=O [Compound 2079] ([NMeA]I[Sar][Sar][NMeCha][Sar][X8]P[Ac5c][NMeV][NMeD]-Piperidide; lactam N-11) | 17 nM |
| CCCC[C@@H]1NC(=O)[C@H](CCc2ccc(C(F)(F)F)c(Cl)c2)NC(=O)CN(C)C(=O)[C@H](Cc2ccc(Cl)cc2)N(C)C(=O)CN(C)C(=O)CN(C)C(=O)[C@H]([C@@H](C)CC)NC(=O)[C@H](CC(C)C)N(C)C(=O)C[C@@H](C)N(C)C(=O)[C@H](CC(C)C)NC(=O)[C@H](Cc2ccccc2)N(C)C1=O [Compound 566] (cyclo(I[Sar][Sar][NMePhe(4-Cl)][Sar][hPhe(3-Cl-4-CF3)][Nle][NMeF]L[NMedβ3hAla][NMeL])) | 160 nM |
| CC[C@H](C)[C@@H]1NC(=O)[C@H](CC(C)C)N(C)C(=O)C[C@@H](C(=O)N2CCCCC2)N(C)C(=O)[C@H](C2CCCC2)N(C)C(=O)C2(CCCC2)NC(=O)[C@@H]2CCCN2C(=O)[C@H](CCc2ccc3occc3c2)NC(=O)CN(C)C(=O)[C@H](CC2CCCCC2)N(C)C(=O)[C@@H]2CCN2C(=O)[C@H](C)N(C)C1=O [Compound 2063] ([NMeL]I[NMeA][Aze][NMeCha][Sar][X11]P[Ac5c][NMeGly(cPent)][NMeD]-Piperidide; lactam N-11 (inferred); C-terminus assumed) | 8.8 nM |
| CC[C@H](C)[C@@H]1NC(=O)[C@H](C)N(C)C(=O)C[C@@H](C(=O)N(C)C)N(C)C(=O)[C@H](C(C)C)N(C)C(=O)C2(CCCC2)NC(=O)[C@H](Cc2ccccc2Cl)N(CC)C(=O)[C@H](CCc2ccc(C(F)(F)F)c(Cl)c2)NC(=O)CN(C)C(=O)[C@H](CC2CCCCC2)N(C)C(=O)CN(C)C(=O)CN(C)C1=O [Compound 2164] ([NMeA]I[Sar][Sar][NMeCha][Sar][hPhe(3-Cl-4-CF3)][NEtPhe(2-Cl)][Ac5c][NMeV][NMeD]-NMe2; lactam N-11) | 300 nM |
| CC[C@H](C)[C@@H]1NC(=O)[C@H](CC(C)C)N(C)C(=O)C[C@@H](C)N(C)C(=O)[C@H]([C@@H](C)CC)N(C)C(=O)C2(CCCC2)NC(=O)[C@@H]2CCCN2C(=O)[C@H](CCc2ccc(C(F)(F)F)c(F)c2)NC(=O)CN(C)C(=O)[C@H](C2CCCC2)N(C)C(=O)[C@@H]2CCN2C(=O)[C@H](C)N(C)C1=O [Compound 909] (cyclo([Ac5c][NMeI][NMedβ3hAla][NMeL]I[NMeA][Aze][NMeGly(cPent)][Sar][hPhe(3-F,4-CF3)]P)) | 20 nM |
| CC[C@H](C)[C@@H]1NC(=O)[C@H](CC(C)C)N(C)C(=O)C[C@@H](C(=O)N2CCCCC2)N(C)C(=O)[C@H](C2CCCCC2)N(C)C(=O)C2(CCCC2)NC(=O)[C@@H]2C[C@H](OCCO)CN2C(=O)[C@H](CCc2ccc(C(F)(F)F)c(Cl)c2)NC(=O)CN(C)C(=O)[C@H](CC2CCCCC2)N(C)C(=O)CN(C)C(=O)CN(C)C1=O [Compound 2117, (3S,9S,18S,21S,25S,28S,34S,36S)-3-[2-[3-chloro-4-(trifluoromethyl)phenyl]ethyl]-28-cyclohexyl-9-(cyclohexylmethyl)-36-(2-hydroxyethoxy)-21-isobutyl-7,10,13,16,22,26,29-heptamethyl-18-[(1S)-1-methylpropyl]-25-(piperidine-1-carbonyl)spiro[1,4,7,10,13,16,19,22,26,29,32-undecazabicyclo[32.3.0]heptatriacontane-31,1′-cyclopentane]-2,5,8,11,14,17,20,23,27,30,33-undecone] ([NMeL]I[Sar][Sar][NMeCha][Sar][hPhe(3-Cl-4-CF3)][cisHyp](Ethyl(2-OH))[Ac5c][NMeChg][NMeD]-Piperidide; lactam N-11) | 0.41 nM |
| CC[C@H](C)[C@@H]1NC(=O)[C@H](CC(C)C)N(C)C(=O)C[C@@H](CC(C)C)NC(=O)[C@H]([C@@H](C)CC)N(C)C(=O)C2(CCCC2)NC(=O)[C@@H]2CCCN2C(=O)[C@H](CCc2ccc(C(F)(F)F)c(Cl)c2)NC(=O)CN(C)C(=O)[C@H](Cc2ccc(C)cc2)N(C)C(=O)[C@@H]2CCN2C(=O)[C@H](C)N(C)C1=O [Compound 1995] (cyclo([Ac5c][NMeI][d(β3hL)][NMeL]I[NMeA][Aze][NMePhe(4-Me)][Sar][hPhe(3-Cl-4-CF3)]P)) | 340 nM |
| CC[C@H](C)[C@@H]1NC(=O)[C@H](C)N(C)C(=O)C[C@@H](C)NC(=O)[C@H](C2CCCCC2)N(C)C(=O)C(C)(C)N(C)C(=O)[C@@H]2CCCN2C(=O)[C@H](CCc2ccc(C(F)(F)F)c(Cl)c2)NC(=O)CN(C)C(=O)[C@H](CC2CCCCC2)N(C)C(=O)[C@@H]2CCN2C(=O)[C@H](C)N(C)C1=O [Compound 291] (cyclo([Aze][NMeCha][Sar][hPhe(3-Cl-4-CF3)]P[NMeAib][NMeChg][d(β3hA)][NMeA]I[NMeA])) | 55 nM |
| CC[C@H](C)[C@@H]1NC(=O)[C@H]([C@@H](C)CC)N(C)C(=O)C[C@@H](C(=O)N2CCCCC2)N(C)C(=O)[C@H](C(C)C)N(C)C(=O)C2(CCCC2)NC(=O)[C@@H]2CCCN2C(=O)[C@H](CCc2ccc(C(F)(F)F)c(Cl)c2)NC(=O)CN(C)C(=O)[C@H](CC2CCCCC2)N(C)C(=O)[C@@H]2CCN2C(=O)[C@H](C)N(C)C1=O [Compound 1863] ([NMeI]I[NMeA][Aze][NMeCha][Sar][hPhe(3-Cl-4-CF3)]P[Ac5c][NMeV][NMeD]-Piperidide; lactam N-11) | 10 nM |
